In article PMC10545790:
Values after ≈ are worked out from the molar mass of the structure shown. Values joined by “and” are separate entries in the source; they are usually repeats but may differ in a detail not shown here. Equal entries are not always repeated. Structures can show the parent of a compound that is named as a salt.

Key:
[1] = in vitro; conditions: both, human
[2] = Thermal and chemical stability; assay type: physicochemical; conditions: for chemical stability in acid: aq. 1 M HCl; for chemical stability in acid / chemical stability in base / stability on storage: room temperature; for chemical stability in acid / chemical stability in base: 1 h; for chemical stability in base: aq. 1 M NaOH; for thermal stability: heating at 100 °C for five minutes; for stability on storage: in air, closed vials, one year, 1H NMR
Description: We also examined the thermal and chemical stability of the synthesized 2-oxabicyclo[2.2.2]octanes. As representative examples, we selected three molecules: isomeric acids 47, 54, and amine 52. All 2-oxabicyclo[2.2.2]octanes were crystalline solids that were stable in air. We stored them in stock at room temperature in closed vials and observed no changes according to ^1H NMR after one year. […] Treatment of the selected 2-oxabicyclo[2.2.2]octanes with aq. 1 M HCl, or aq.

[3] = Determination of pKa values (potentiometric titration); assay type: physicochemical; conditions: methanol-water (1:4) solution of NaCl; titration method; potentiometric acid-base titration at 25 °C in methanol-water (1:4), 150 mM NaCl; read-out: pKa (exp.)
Procedure: Data is obtained by the titration method. Para-methyl benzoic acid (83) is used as a reference. TEXT PRINTED IN THE PICTURE: 83: pKa (exp.): 4.5 ± 0.1 | 84: pKa (exp.): 5.6 ± 0.1 | 47: pKa (exp.): 4.4 ± 0.1 | 54: pKa (exp.): 4.1 ± 0.1 […]
Determination of pKa values
The tendency of a compound to donate proton is measured as its acid ionization constant (dissociation constant), or Ka. A more practical scale of representing acidity is pKa which is the negative logarithm of the Ka (pKa = -log Ka). pKa of a test article is determined by pH-metric method based on potentiometric acid-base titration at 25 °C. The test compounds are dissolved in acidified methanol-water (1:4) solution of NaCl (150 mM, pH 2) and slowly titrated with 0.3 M sodium hydroxide methanol-water (1:4) solution, while recording pH of the solution as a function of NaOH volume used during the titration (construction of the titration curve). Titration of acidified NaCl solution in absence of any compounds is used for blank plotting.5-8 Buffering capacity is calculated in each point of titration curve as the ratio of the NaOH flow (constant) to the pH rise velocity. The pKa value is determined from resulting plot of buffering capacity versus pH as the maximum of buffering capacity. pH-metric method allows to measure pKas in the range of approximately between 2 and 12. […]
meter, pHi®510 (Beckman Coulter, Canada; Cat# A58734). Data analysis was done using GraphPad […]
Sodium hydroxide (Enamine, Ukraine; CAS # 1310-73-2)
Sodium chloride BioXtra, ≥99.5% (AT) (Sigma-Aldrich, USA; Cat # S7653)
Hydrochloric acid (Enamine, Ukraine; CAS # 7647-01-0)
Disposable pipette tips (Eppendorf, German; Matrix and Finntip, Thermo, USA) Polypropylene graduated conical tubes, 50 mL (Kartell, Italy; Cat. # 84002) Polypropylene syringe (10 mL) with tubing (Hemoplast, Ukraine) […]
pH-meter, pHi®510 (Beckman Coulter, Canada; Cat# A58734)
Multichannel Electronic Pipettes 5-50 µL, 10-1000 µL (Thermo, USA)
Magnetic stirrer standard unit (IKA, USA)
Syringe Driver Mdl 100 (KDScientific, USA)

[4] = tested on: human liver microsomes; conditions: both, 2 µM, pH 7.4
[5] = Kinetic solubility in phosphate-buffered saline, pH 7.4; conditions: pH 7.4
[6] = tested on: human hepatocellular carcinoma cells HepG2; assay: High Content Imaging of HepG2 cells: nuclei count, necrosis (PI), apoptosis (caspase 3/7); assay type: cell-based; design: Nuclei Area wv1 / Mean nuclei area: unit not given here; conditions: HepG2, 48 h; for Mean nuclei intensity: Hoechst 33342; for All Targets.PI negative.casp positive (%) / All Targets.PI positive (%) / Nuclei Area wv1 / Nuclei Intensity wv1: single well; for Nuclei Count wv1: single well (concentration from plate map the 5th table)
Procedure: proliferation and cell death mechanisms, using High Content Imaging assay. The following parameters were assessed: nuclei count to measure inhibiting of the proliferation; cell membrane permeability to assess general cytotoxicity and necrosis; caspase activation to test apoptosis. […]
Human hepatocellular carcinoma HepG2 cell line was used to test biological action of Vorinostat and its analogues. Cell line was obtained from Leibniz Institute DSMZ - German Collection of Microorganisms and Cell Cultures. Cells were cultured in DMEM medium (Hyclone, Cat# SH30003.04) supplemented with 10% fetal bovine serum (Sigma-Aldrich, Cat# F7524), 100 units/mL penicillin and 100 μg/mL streptomycin (Sigma-Aldrich, Cat# P4333).
Before plating, the cells were first washed with PBS and then trypsinized with 0.01% trypsin solution (Sigma-Aldrich, Cat# T4174) in DPBS. The appropriate volume of culture medium was placed in a flask to stop further trypsinization, then the cells were centrifugated at 200 x g for 4 min, resuspended in fresh complete medium and counted using a counting chamber after being stained with Trypan Blue. […]
μL total volume per well and incubated at 37 °C/5%CO2/95%RH overnight. Vorinostat and test compounds were dissolved in 100% DMSO at a concentration of 10 mM and stored at -20 °C as single-use aliquots. Next day 20 μL of medium with compounds was added to the cells to the final DMSO concentration […]. Treatment for 48 hours was performed under growth conditions.
Compounds were assessed at the final concentrations 1, 5 and 50 μM (each in triplicates - 3 wells, 9 fields of view per well). Staining for nuclei, apoptotic cells with activated caspase 3/7 and dead […]
cells with permeabilized membrane was performed for 30 min under growth conditions in staining […]
3/7 Detection Reagent (Invitrogen, Cat# C10423) and 1 μM Propidium Iodide (Invitrogen, Cat# P3566) in medium complete. The cells were imaged with InCell Analyzer 6500, 20x obj. Image […]
Data were analyzed in GraphPad Prism 9.
Supplementary Fig. 16. Workflow of multiplexed cells staining.
Multiplexed staining allows to test cell toxicity and distinguish between necrosis and apoptosis within one single experiment (Supplementary Fig. 16).
CellEvent Caspase-3/7 Green Detection Reagent labels cells with activated caspases. Propidium Iodide (PI) labels dead cells with permeabilized membrane. Hoechst-positive cells were counted to assess the % of cell toxicity. PI-positive cells are dead – this is a fraction of necrotic and late apoptotic cells, used for assessing of cytotoxicity/necrosis. Early apoptotic cells are caspase-positive, PI-negative because their membrane isn’t compromised yet. Percentages of cells of certain […]
background and comparing with overall number of cells.

[7] = microsomes, pH 7.4, % Remaining, Mean of 2

For `CC(C)NCC(O)COc1cccc2ccccc12` (racemic) [Propranolol, (+,-) Propranolol hydrochloride], the remaining at 40 min, 2 µM [1, 7] was 66%, the half-life at 2 µM ([1]; microsomes, pH 7.4, t1/2: half-time of a metabolic decomposition) was 1.02 h and the k el at 2 µM ([1]; pH 7.4, kel (elimination constant)) was 0.000183 s⁻¹.

In the case of `CC12CCC(C(=O)O)(CC1)CO2` [Compound 47], the “chemical stability in acid” value [2] is reported as “no decomposition”, the “chemical stability in base” value [2] is reported as “no decomposition” and the thermal stability [2] is reported as “remained stable”. For the same compound, the stability on storage [2] was “no changes” and the pKa [3] was 4.4.

For `CC12CCC(CN)(CC1)OC2` [Compound 52], the “chemical stability in acid” value [2] was “no decomposition”, the “chemical stability in base” value [2] was “no decomposition” and the thermal stability [2] was “remained stable”. For the same compound, the stability on storage [2] was “no changes”.

For `CC12CCC(C(=O)O)(CC1)OC2` [Compound 54], the “chemical stability in acid” value [2] was “no decomposition”, the “chemical stability in base” value [2] was “no decomposition” and the thermal stability [2] was “remained stable”. For the same compound, the stability on storage [2] was “no changes” and the pKa [3] was 4.1.

With `Cc1ccc(C(=O)O)cc1` [Compound 83, para-methyl benzoic acid, reference compound] the pKa [3] was 4.5.

For `CC12CCC(C(=O)O)(CC1)CC2` [Compound 84, reference compound], the pKa [3] was 5.6.

With `O=C(O)Cc1ccccc1Nc1c(Cl)cccc1Cl` [Diclofenac] the “kel (elimination constant)” value [4] was 0.119 min⁻¹, the “% Remaining, Mean of 2” value ([4]; microsomes, 7 min) was 49% and the “% Remaining without cofactor, Mean of 2” value ([4]; microsomes, 40 min) was 91%.

`Cc1ccc(NC(=O)c2ccc(CN3CCN(C)CC3)cc2)cc1Nc1nccc(-c2cccnc2)n1` [Imatinib] showed a remaining at 40 min, 2 µM ([1]; microsomes, pH 7.4, % Remaining without cofactor, Mean of 2) of 88%, a remaining at 7 min, 2 µM [1, 7] of 109% and a remaining at 0.25 h, 2 µM [1, 7] of 93%. It also gave a remaining at 25 min, 2 µM [1, 7] of 82% and a remaining at 40 min, 2 µM [1, 7] of 66%.

Compound `Cc1nccn1CC1CCc2c(c3ccccc3n2C)C1=O` (stereo not shown) [Ondansetron, reference compound] has a solubility kinetic at 2 h [5] of 126 µM (≈ 37 µg/mL).

With `O=C(CCCCCCC(=O)Nc1ccccc1)NO` [Vorinostat, reference compound] the Mean nuclei area ([6]; 1 uM) was 133.3, the Mean nuclei intensity ([6]; 1 uM) was 3539.0 RFU and the “% of early apoptotic cells (PI negative, caspase positive)” value (from here on “% of early apoptotic cells”) ([6]; 1 uM, mean of 3 wells) was 1.4%. The “% of necrotic and late apoptotic cells (PI positive)” value ([6]; 1 uM, mean of 3 wells) was 2.0%, the “All Targets.PI negative.casp positive (%)” value ([6]; 1 uM) was 1.09% and 1.685% and 1.464% and the “All Targets.PI positive (%)” value ([6]; 1 uM) was 1.46% and 2.372% and 2.236%. The “Nuclei Area wv1” value ([6]; 1 uM) was 132.596 and 129.806 and 137.55, the “Nuclei Intensity wv1” value ([6]; 1 uM) was 3323.23 and 3018.81 and 4275.36 and the “Nuclei Count wv1” value ([6]; 1 uM) was 5137 and 4806 and 4919. The Mean nuclei area ([6]; 5 uM) was 133.4, the Mean nuclei intensity ([6]; 5 uM) was 4444.0 RFU and the “% of early apoptotic cells” value ([6]; 5 uM, mean of 3 wells) was 7.2%. The “% of necrotic and late apoptotic cells (PI positive)” value ([6]; 5 uM, mean of 3 wells) was 10.4%, the “All Targets.PI negative.casp positive (%)” value ([6]; 5 uM) was 8.109% and 5.087% and 8.342% and the “All Targets.PI positive (%)” value ([6]; 5 uM) was 11.8095% and 7.619% and 11.7647%. The “Nuclei Area wv1” value ([6]; 5 uM) was 135.125 and 131.698 and 133.281, the “Nuclei Intensity wv1” value ([6]; 5 uM) was 4725.81 and 3784.72 and 4822.36 and the “Nuclei Count wv1” value ([6]; 5 uM) was 3675 and 4187 and 3740. The Mean nuclei area ([6]; 50 uM) was 122.1, the Mean nuclei intensity ([6]; 50 uM) was 1952.0 RFU and the “% of early apoptotic cells” value ([6]; 50 uM, mean of 3 wells) was 12.2%. For the same compound, the “% of necrotic and late apoptotic cells (PI positive); cell toxicity level” value ([6]; 50 uM, mean of 3 wells) was 77% and 77.5%, the “All Targets.PI negative.casp positive (%)” value ([6]; 50 uM) was 12.2839% and 13.7268% and 10.5715% and the “All Targets.PI positive (%)” value ([6]; 50 uM) was 77.0504% and 75.6692% and 79.9029%. For the same compound, the “Nuclei Area wv1” value ([6]; 50 uM) was 120.16 and 121.222 and 124.941, the “Nuclei Intensity wv1” value ([6]; 50 uM) was 1713 and 2196.3 and 1947.17 and the “Nuclei Count wv1” value ([6]; 50 uM) was 2719 and 2914 and 2677.
